Experimental data as given in ChEMBL document CHEMBL1268823, “Bernthsen synthesis, antimicrobial activities and cytotoxicity of acridine derivatives” (Bioorg Med Chem Lett, 2010).
≈ marks a conversion by molar mass, not a printed value.

Tests used:
Staphylococcus aureus = test: Antimicrobial activity against Staphylococcus aureus by agar plate disk diffusion method; assay type: functional
Streptococcus pyogenes = test: Antimicrobial activity against Streptococcus pyogenes by agar plate disk diffusion method; assay type: functional
Escherichia coli = test: Antimicrobial activity against Escherichia coli by agar plate disk diffusion method; assay type: functional
Pseudomonas aeruginosa = test: Antimicrobial activity against Pseudomonas aeruginosa by agar plate disk diffusion method; assay type: functional
Aspergillus niger = test: Antifungal activity against Aspergillus niger by agar plate disk diffusion method; assay type: functional
HEp-2 = test: Cytotoxicity against human Hep2 cells by MTT assay; assay type: functional, cell-based
HL-60 = test: Cytotoxicity against human HL60 cells by MTT assay; assay type: functional, cell-based
HEK-293T = test: Cytotoxicity against human HEK293T cells by MTT assay; assay type: functional, cell-based

Molecule	MIC (Staphylococcus aureus) [µg/mL]	MIC (Streptococcus pyogenes) [µg/mL]	MIC (Escherichia coli) [µg/mL]	MIC (Pseudomonas aeruginosa) [µg/mL]	MIC (Aspergillus niger) [µg/mL]	IC50 (HEp-2) [µM]	IC50 (HL-60) [µM]	IC50 (HEK-293T) [µM]
CCn1cc(C(=O)O)c(=O)c2cc(F)c(N3CCNCC3)cc21 [NORFLOXACIN]	10 (≈ 31.3 µM)	10 (≈ 31.3 µM)	10 (≈ 31.3 µM)	10 (≈ 31.3 µM)	–	–	–	–
O=c1cc(Cc2c3ccccc3nc3ccccc23)c2ccc(O)cc2o1	500 (≈ 1410 µM)	500 (≈ 1410 µM)	200 (≈ 566 µM)	250 (≈ 707 µM)	> 1000	> 100	> 100	> 100
Cc1ccc2oc(=O)cc(Cc3c4ccccc4nc4ccccc34)c2c1	125 (≈ 356 µM)	100 (≈ 285 µM)	125 (≈ 356 µM)	125 (≈ 356 µM)	500 (≈ 1420 µM)	> 100	> 100	> 100
Cc1ccc2c(Cc3c4ccccc4nc4ccccc34)cc(=O)oc2c1	500 (≈ 1420 µM)	50 (≈ 142 µM)	150 (≈ 427 µM)	62.5 (≈ 178 µM)	1000 (≈ 2850 µM)	> 100	> 100	> 100
NYSTATIN	–	–	–	–	100	–	–	–
O=c1cc(Cc2c3ccccc3nc3ccccc23)c2ccc(Cl)cc2o1	50 (≈ 134 µM)	250 (≈ 672 µM)	50 (≈ 134 µM)	500 (≈ 1340 µM)	1000 (≈ 2690 µM)	> 100	27.5	> 100
O=C(N[C@H](CO)[C@H](O)c1ccc([N+](=O)[O-])cc1)C(Cl)Cl [CHLORAMPHENICOL]	50 (≈ 155 µM)	50 (≈ 155 µM)	50 (≈ 155 µM)	50 (≈ 155 µM)	–	–	–	–
O=C(O)c1cn(C2CC2)c2cc(N3CCNCC3)c(F)cc2c1=O [CIPROFLOXACIN]	50 (≈ 151 µM)	50 (≈ 151 µM)	25 (≈ 75.4 µM)	–	–	–	–	–
O=c1cc(Cc2c3ccccc3nc3ccccc23)c2cc(Cl)ccc2o1	250 (≈ 672 µM)	75 (≈ 202 µM)	75 (≈ 202 µM)	25 (≈ 67.2 µM)	1000 (≈ 2690 µM)	> 100	28.7	> 100
CC1(C)S[C@@H]2[C@H](NC(=O)[C@H](N)c3ccccc3)C(=O)N2[C@H]1C(=O)O [AMPICILLIN]	250 (≈ 715 µM)	100 (≈ 286 µM)	100 (≈ 286 µM)	100 (≈ 286 µM)	–	–	–	–
COC1=CC(=O)C[C@@H](C)[C@]12Oc1c(Cl)c(OC)cc(OC)c1C2=O [GRISEOFULVIN]	–	–	–	–	100 (≈ 283 µM)	–	–	–
O=c1cc(Cc2c3ccccc3nc3ccccc23)c2ccccc2o1	250 (≈ 741 µM)	250 (≈ 741 µM)	250 (≈ 741 µM)	250 (≈ 741 µM)	500 (≈ 1480 µM)	> 100	> 100	> 100
O=c1cc(Cc2c3ccccc3nc3ccccc23)c2cc(O)ccc2o1	500 (≈ 1410 µM)	250 (≈ 707 µM)	50 (≈ 141 µM)	100 (≈ 283 µM)	–	> 100	> 100	> 100
O=P1(N(CCCl)CCCl)NCCCO1 (stereo not drawn) [CYCLOPHOSPHAMIDE ANHYDROUS]	–	–	–	–	–	> 100	8.79	> 100
O=c1cc(Cc2c3ccccc3nc3ccccc23)c2ccc([N+](=O)[O-])cc2o1	250 (≈ 654 µM)	500 (≈ 1310 µM)	100 (≈ 262 µM)	200 (≈ 523 µM)	500 (≈ 1310 µM)	> 100	> 100	> 100
